# In ChEMBL document CHEMBL5291721, “A preclinical secondary pharmacology resource illuminates target-adverse drug reaction associations of marketed drugs” (Nat Commun, 2023):
# Tests used:
# [1] = molecular target: T1, Adenosine receptor A3 (Homo sapiens, UniProt P0DMS8)
# T1 sequence (P0DMS8 whole entry): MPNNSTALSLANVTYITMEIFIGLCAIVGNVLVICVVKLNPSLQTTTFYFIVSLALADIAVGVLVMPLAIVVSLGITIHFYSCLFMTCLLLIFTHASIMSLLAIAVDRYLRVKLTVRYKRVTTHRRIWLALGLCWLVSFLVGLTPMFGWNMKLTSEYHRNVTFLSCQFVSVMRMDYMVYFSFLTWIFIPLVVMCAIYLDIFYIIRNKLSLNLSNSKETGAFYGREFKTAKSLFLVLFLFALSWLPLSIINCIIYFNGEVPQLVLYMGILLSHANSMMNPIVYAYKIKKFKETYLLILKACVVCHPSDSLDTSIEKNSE
# [2] = molecular target: T2, Gastrin/cholecystokinin type B receptor (Homo sapiens, UniProt P32239)
# T2 sequence (P32239 whole entry): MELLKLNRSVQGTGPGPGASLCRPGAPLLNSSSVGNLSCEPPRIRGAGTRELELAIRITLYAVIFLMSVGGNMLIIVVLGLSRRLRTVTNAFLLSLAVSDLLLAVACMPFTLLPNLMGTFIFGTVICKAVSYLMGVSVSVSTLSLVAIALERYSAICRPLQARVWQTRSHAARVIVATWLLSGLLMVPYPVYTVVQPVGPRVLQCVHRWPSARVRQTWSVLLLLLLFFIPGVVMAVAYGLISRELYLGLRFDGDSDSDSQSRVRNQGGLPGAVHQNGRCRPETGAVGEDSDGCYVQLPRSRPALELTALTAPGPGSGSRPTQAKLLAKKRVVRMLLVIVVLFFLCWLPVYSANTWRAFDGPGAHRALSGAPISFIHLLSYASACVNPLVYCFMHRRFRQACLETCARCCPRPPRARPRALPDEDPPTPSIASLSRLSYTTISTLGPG
# [3] = molecular target: T3, Alpha-2C adrenergic receptor (Homo sapiens, UniProt P18825); type: functional
# T3 sequence (P18825 whole entry): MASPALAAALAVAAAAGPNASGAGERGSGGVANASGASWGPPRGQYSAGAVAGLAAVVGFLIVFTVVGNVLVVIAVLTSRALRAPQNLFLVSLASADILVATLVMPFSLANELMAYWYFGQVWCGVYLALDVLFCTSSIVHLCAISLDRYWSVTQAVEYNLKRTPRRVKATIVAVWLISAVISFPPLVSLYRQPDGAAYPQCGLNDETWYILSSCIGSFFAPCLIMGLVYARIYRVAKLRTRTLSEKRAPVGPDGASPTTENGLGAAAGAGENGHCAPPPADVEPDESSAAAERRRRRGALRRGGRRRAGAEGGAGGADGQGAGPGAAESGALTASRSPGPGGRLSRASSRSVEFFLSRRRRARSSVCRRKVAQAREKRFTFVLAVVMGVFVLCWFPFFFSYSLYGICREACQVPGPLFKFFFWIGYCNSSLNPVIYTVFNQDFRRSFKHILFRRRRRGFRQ
# [4] = molecular target: Gamma-aminobutyric acid receptor subunit alpha-1 (Rattus norvegicus, UniProt P62813)
# Gamma-aminobutyric acid receptor subunit alpha-1, sequence (P62813 whole entry): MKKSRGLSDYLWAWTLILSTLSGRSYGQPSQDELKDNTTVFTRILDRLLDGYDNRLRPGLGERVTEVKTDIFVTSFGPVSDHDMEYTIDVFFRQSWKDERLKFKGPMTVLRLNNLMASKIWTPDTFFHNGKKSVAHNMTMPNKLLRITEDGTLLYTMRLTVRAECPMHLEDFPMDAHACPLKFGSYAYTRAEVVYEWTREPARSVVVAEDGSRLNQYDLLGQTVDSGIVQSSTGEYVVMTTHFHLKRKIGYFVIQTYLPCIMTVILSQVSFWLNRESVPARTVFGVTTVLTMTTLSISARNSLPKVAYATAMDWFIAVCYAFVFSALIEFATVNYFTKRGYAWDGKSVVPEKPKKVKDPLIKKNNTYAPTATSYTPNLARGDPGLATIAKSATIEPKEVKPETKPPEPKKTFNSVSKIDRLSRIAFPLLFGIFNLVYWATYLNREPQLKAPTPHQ
# [5] = molecular target: Sodium-dependent dopamine transporter (Homo sapiens, UniProt Q01959)
# Sodium-dependent dopamine transporter, sequence (Q01959 whole entry): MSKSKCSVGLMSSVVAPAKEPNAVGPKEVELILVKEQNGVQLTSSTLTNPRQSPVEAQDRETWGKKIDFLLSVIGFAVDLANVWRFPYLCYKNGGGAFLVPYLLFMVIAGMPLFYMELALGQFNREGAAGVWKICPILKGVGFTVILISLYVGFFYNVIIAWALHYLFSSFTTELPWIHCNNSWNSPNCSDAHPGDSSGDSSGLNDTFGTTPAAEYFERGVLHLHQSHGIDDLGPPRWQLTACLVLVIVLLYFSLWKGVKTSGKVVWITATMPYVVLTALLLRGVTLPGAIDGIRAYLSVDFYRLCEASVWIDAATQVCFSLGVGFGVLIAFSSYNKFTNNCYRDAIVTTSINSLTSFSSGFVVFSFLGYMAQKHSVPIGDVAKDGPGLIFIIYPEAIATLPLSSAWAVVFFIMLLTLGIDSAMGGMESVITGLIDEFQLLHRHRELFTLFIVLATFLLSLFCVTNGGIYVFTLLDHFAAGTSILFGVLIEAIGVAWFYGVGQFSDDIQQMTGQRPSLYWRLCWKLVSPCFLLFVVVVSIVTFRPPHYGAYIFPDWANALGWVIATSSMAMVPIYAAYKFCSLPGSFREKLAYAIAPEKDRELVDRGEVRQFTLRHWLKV
# [6] = molecular target: T4, Equilibrative nucleoside transporter 1 (Homo sapiens, UniProt Q99808)
# T4 sequence (Q99808 whole entry): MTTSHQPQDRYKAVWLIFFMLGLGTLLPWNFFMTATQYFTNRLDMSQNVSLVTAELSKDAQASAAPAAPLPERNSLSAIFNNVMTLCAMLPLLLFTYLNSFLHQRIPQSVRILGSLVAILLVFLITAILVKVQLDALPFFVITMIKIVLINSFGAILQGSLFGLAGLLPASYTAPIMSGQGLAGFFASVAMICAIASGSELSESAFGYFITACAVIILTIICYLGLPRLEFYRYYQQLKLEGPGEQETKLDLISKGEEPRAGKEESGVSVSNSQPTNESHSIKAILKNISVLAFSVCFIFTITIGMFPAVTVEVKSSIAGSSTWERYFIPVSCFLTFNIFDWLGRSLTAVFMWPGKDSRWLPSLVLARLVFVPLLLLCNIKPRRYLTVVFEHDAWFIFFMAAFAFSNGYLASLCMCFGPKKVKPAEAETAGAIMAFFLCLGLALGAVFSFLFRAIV
# [7] = molecular target: T5, 5-hydroxytryptamine receptor 2B (Homo sapiens, UniProt P41595); type: functional, cell-based
# T5 sequence (P41595 whole entry): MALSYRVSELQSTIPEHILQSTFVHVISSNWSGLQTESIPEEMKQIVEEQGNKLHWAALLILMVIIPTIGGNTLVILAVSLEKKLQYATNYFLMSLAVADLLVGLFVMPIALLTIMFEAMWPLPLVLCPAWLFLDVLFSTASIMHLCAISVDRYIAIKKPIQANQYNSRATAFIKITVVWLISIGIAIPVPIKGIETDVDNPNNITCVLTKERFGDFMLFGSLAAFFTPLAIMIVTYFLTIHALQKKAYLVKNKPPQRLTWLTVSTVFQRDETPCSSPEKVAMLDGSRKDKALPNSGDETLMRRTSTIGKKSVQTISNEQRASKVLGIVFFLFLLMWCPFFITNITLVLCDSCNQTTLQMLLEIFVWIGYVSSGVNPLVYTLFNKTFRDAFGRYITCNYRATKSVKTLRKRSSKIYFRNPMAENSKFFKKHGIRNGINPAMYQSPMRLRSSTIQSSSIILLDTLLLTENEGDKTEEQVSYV
# [8] = molecular target: T5, 5-hydroxytryptamine receptor 2B; type: functional, cell-based; remark: listed apart in the source
# [9] = molecular target: T6, Alpha-2A adrenergic receptor (Homo sapiens, UniProt P08913); type: functional, cell-based
# T6 sequence (P08913 whole entry): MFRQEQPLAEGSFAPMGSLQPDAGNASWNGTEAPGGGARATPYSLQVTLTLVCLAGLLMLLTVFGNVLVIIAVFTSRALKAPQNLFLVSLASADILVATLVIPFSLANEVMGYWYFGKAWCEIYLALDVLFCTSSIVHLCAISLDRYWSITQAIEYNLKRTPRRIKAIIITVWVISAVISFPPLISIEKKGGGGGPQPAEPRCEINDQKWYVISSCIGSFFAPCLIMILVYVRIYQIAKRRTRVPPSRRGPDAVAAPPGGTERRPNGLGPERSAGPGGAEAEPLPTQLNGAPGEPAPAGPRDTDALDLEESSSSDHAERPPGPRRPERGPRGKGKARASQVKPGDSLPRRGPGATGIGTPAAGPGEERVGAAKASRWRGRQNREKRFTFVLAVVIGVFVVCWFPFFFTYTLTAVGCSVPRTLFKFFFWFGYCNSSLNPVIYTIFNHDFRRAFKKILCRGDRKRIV
# Further: assay procedure not described here.
SMILES,AC50 [1] [µM],AC50 [2] [µM],AC50 [3] [µM],AC50 [4] [µM],AC50 [5] [µM],AC50 [6] [µM],AC50 [7] [µM],AC50 [8] [µM],AC50 [9] [µM]
Cc1c(C(=O)Nc2ccc(N3C[C@@H](C)O[C@@H](C)C3)nc2)cccc1-c1ccc(OC(F)(F)F)cc1 [SONIDEGIB],> 30,> 30,> 10,> 10,> 10,> 30,,,
COc1c(N2CCNC(C)C2)c(F)cc2c(=O)c(C(=O)O)cn(C3CC3)c12 (stereo not given) [GATIFLOXACIN],> 10,,> 10,> 10,> 10,> 10,> 10,> 10,> 10
CN1C(=O)CC(=O)N(c2ccccc2)c2cc(Cl)ccc21 [CLOBAZAM],> 10,,> 10,> 10,> 10,> 10,> 10,> 10,> 10
CN1CCC2=C(C1)C(c1ccccc1)c1ccccc12 (stereo not given) [PHENINDAMINE],> 10,,12,> 10,> 30,> 30,> 10,> 10,> 10
Cc1nc2ccc(CN(C)c3ccc(C(=O)N[C@@H](CCC(=O)O)C(=O)O)s3)cc2c(=O)[nH]1 [RALTITREXED],> 30,> 10,> 30,> 30,> 30,> 30,> 30,> 30,> 30
COC(=O)C1=C(C)NC(C)=C(C(=O)OC(C)C)C1c1cccc2nonc12 (stereo not given) [ISRADIPINE],20.3,34.1,> 30,> 10,26,> 30,> 10,> 10,> 10
CN1CCCN=C1COC(=O)C(O)(c1ccccc1)C1CCCCC1 (stereo not given) [OXYPHENCYCLIMINE],> 10,,> 10,> 10,> 30,27.5,> 10,> 10,> 10
CC(C)[N+](C)(CCC(C(N)=O)(c1ccccc1)c1ccccc1)C(C)C [ISOPROPAMIDE],> 10,,> 10,> 10,> 10,> 10,> 10,> 10,> 10
CN1CC[C@]23CCCC[C@H]2[C@H]1Cc1ccc(O)cc13 [LEVORPHANOL],> 10,,> 30,> 10,> 30,> 30,> 10,> 10,9
CC(=O)NS(=O)(=O)c1ccc(N)cc1 [SULFACETAMIDE],> 10,,> 10,> 10,> 10,> 10,> 10,> 10,> 10
